Data as given in article PMC4965013, “Open Source Drug Discovery with the Malaria Box Compound Collection for Neglected Diseases and Beyond” (PLoS Pathogens, 2016).
Where two headings read alike, the source gives them in different places.

Key:
P. falciparum = test: EC50 listed in S2 Table Metabolomics (used to set the concentration tested); format: cell-based; settings: Plasmodium falciparum; EC50 used for Factor_XEC50 in metabolomics; read-out: EC50_nM
P. falciparum 3D7 = test: [3H]-hypoxanthine growth inhibition, modified HCO3- or O2; format: cell-based; settings: for IC50: Plasmodium falciparum
[1] = tested on: P. falciparum 3D7 trophozoites; test: Metabolomic fingerprint profiling LC-MS; format: cell-based, Plasmodium falciparum; parameters: UDP-D-glucose / ADP-D-glucose: unit not given here; settings: for Acetyllysine / N-acetyl-L-ornithine / N-carbamoyl-L-aspartate / NADPH / dAMP / dCMP / dTDP / dTMP / dTTP / dihydroorotate / orotate / DLH / DLS/SDL/SID / PD / PEE / PVNF / 3-phosphoglycerate / ADP-D-glucose / ATP / CDP / D-sedoheptulose-1/7-phosphate / FAD / GMP / NAD+ / NADP+ / Octoluse Bisphosphate / Pyroglutamic acid / UDP-D-glucose / UDP-D-glucuronate / UDP-N-acetyl-glucosamine / UDP / UMP / UTP / a-ketoglutarate / citrate/isocitrate / cytidine / dATP / dGMP/AMP / fumarate / glucose-1/6-phosphate / glycerate / guanine / guanosine / hypoxanthine / indole / inosine / nicotinate / ornithine / phosphoenolpyruvate / pyruvate / ribose-phosphate / sarcosine/alanine / sn-glycerol-3-phosphate / succinate/methylmalonic acid / uridine / xanthosine: S2 Table Metabolomics; for Acetyllysine: metabolite Acetyllysine; for N-acetyl-L-ornithine: metabolite N-acetyl-L-ornithine; for N-carbamoyl-L-aspartate: metabolite N-carbamoyl-L-aspartate; for NADPH: metabolite NADPH; for dAMP: metabolite dAMP; for dCMP: metabolite dCMP; for dTDP: metabolite dTDP; for dTMP: metabolite dTMP; for dTTP: metabolite dTTP; for dihydroorotate: metabolite dihydroorotate; for orotate: metabolite orotate; for DLH: peptide DLH; for DLS/SDL/SID: peptide DLS/SDL/SID; for PD: peptide PD; for PEE: peptide PEE; for PVNF: peptide PVNF; for 3-phosphoglycerate: metabolite 3-phosphoglycerate; for ADP-D-glucose: metabolite ADP-D-glucose; for ATP: metabolite ATP; for CDP: metabolite CDP; for CDP / D-sedoheptulose-1/7-phosphate / GMP / Octoluse Bisphosphate / UDP / UMP / UTP / citrate/isocitrate / dGMP/AMP / fumarate / glucose-1/6-phosphate / glycerate / guanine / guanosine / inosine / pyruvate / sarcosine/alanine / succinate/methylmalonic acid / uridine / xanthosine: change in metabolite level after compound treatment; for D-sedoheptulose-1/7-phosphate: metabolite D-sedoheptulose-1/7-phosphate; for FAD: metabolite FAD; for GMP: metabolite GMP; for NAD+: metabolite NAD+; for NADP+: metabolite NADP+; for Octoluse Bisphosphate: metabolite Octoluse Bisphosphate; for Pyroglutamic acid: metabolite Pyroglutamic acid; for UDP-D-glucose: metabolite UDP-D-glucose; for UDP-D-glucuronate: metabolite UDP-D-glucuronate; for UDP-N-acetyl-glucosamine: metabolite UDP-N-acetyl-glucosamine; for UDP: metabolite UDP; for UMP: metabolite UMP; for UTP: metabolite UTP; for a-ketoglutarate: metabolite a-ketoglutarate; for citrate/isocitrate: metabolite citrate/isocitrate; for cytidine: metabolite cytidine; for dATP: metabolite dATP; for dGMP/AMP: metabolite dGMP/AMP; for fumarate: metabolite fumarate; for glucose-1/6-phosphate: metabolite glucose-1/6-phosphate; for glycerate: metabolite glycerate; for guanine: metabolite guanine; for guanosine: metabolite guanosine; for hypoxanthine: metabolite hypoxanthine; for indole: metabolite indole; for inosine: metabolite inosine; for 2_3-Diphosphoglyceric acid / 4-phosphopantothenate / 6-phospho-D-gluconate / FMN / IMP / Pyrophosphate / Sedoheptoluse bisphosphate / cyclic-AMP / glutathione disulfide / lactate / myo-inositol: metabolite level change after treatment; for nicotinate: metabolite nicotinate; for ornithine: metabolite ornithine; for phosphoenolpyruvate: metabolite phosphoenolpyruvate; for pyruvate: metabolite pyruvate; for ribose-phosphate: metabolite ribose-phosphate; for sarcosine/alanine: metabolite sarcosine/alanine; for sn-glycerol-3-phosphate: metabolite sn-glycerol-3-phosphate; for succinate/methylmalonic acid: metabolite succinate/methylmalonic acid; for uridine: metabolite uridine; for xanthosine: metabolite xanthosine
[2] = 3D7, read-out: P. falciparum 3D7 IC50 HCO3- (2g/L), standard media
[3] = 3D7, HCO3- reduced media, read-out: P. falciparum 3D7 IC50 HCO3- reduced

For `COc1ccc(-c2nc(NC(=O)CS(=O)(=O)c3ccc(F)cc3)sc2C)cc1` [MMV665915], the EC50 (P. falciparum) was 0.448 µM, the “fold change (IC50reduced/IC50normal)” value (P. falciparum 3D7) was 2.4 and the IC50 (P. falciparum 3D7; [2]) was 0.192 µM. It also gave an IC50 (P. falciparum 3D7; [3]) of 0.464 µM, an Acetyllysine [1] of -0.1771 and a N-acetyl-L-ornithine [1] of -0.3059. For the same molecule, the N-carbamoyl-L-aspartate [1] was 0.053, the NADPH [1] was 0.1215 and the dAMP [1] was -0.4653. It also gave a dCMP [1] of -0.2866, a dTDP [1] of 0.07665 and a dTMP [1] of 0.08902. The dTTP [1] was -0.1721, the dihydroorotate [1] was -0.4672 and the orotate [1] was -0.4189. It also gave a DLH [1] of 0.071, a DLS/SDL/SID [1] of -0.2498 and a PD [1] of -0.3229. It also gave a PEE [1] of -0.02112, a PVNF [1] of 0.02436 and a 3-phosphoglycerate [1] of -0.875. It also gave an ADP-D-glucose [1] of -0.2338, an ATP [1] of -0.08026 and a CDP [1] of 0.2353. For the same molecule, the D-sedoheptulose-1/7-phosphate [1] was 0.2732, the FAD [1] was -0.2366 and the GMP [1] was -0.6644. For the same molecule, the “NAD+” value [1] was -0.2604, the “NADP+” value [1] was -0.1454 and the “Octoluse Bisphosphate” value [1] was -0.3427. For the same molecule, the Pyroglutamic acid [1] was 0.2622, the UDP-D-glucose [1] was -0.2684 and the UDP-D-glucuronate [1] was -0.1851. It also gave a UDP-N-acetyl-glucosamine [1] of -0.3241, a UDP [1] of 0.1227 and a UMP [1] of -0.7313. The UTP [1] was -0.06326, the a-ketoglutarate [1] was -0.1843 and the citrate/isocitrate [1] was 0.1306. For the same molecule, the cytidine [1] was -0.25, the dATP [1] was -0.1264 and the dGMP/AMP [1] was -0.5258. The fumarate [1] was -0.3392, the glucose-1/6-phosphate [1] was -0.6162 and the glycerate [1] was -0.5026. It also gave a guanine [1] of -0.3726, a guanosine [1] of -0.4353 and a hypoxanthine [1] of 0.151. The indole [1] was 0.2601, the inosine [1] was -0.1084 and the 2_3-Diphosphoglyceric acid [1] was -0.3692. The 4-phosphopantothenate [1] was -0.3105, the 6-phospho-D-gluconate [1] was -0.535 and the FMN [1] was -0.2195. The IMP [1] was -0.3295, the Pyrophosphate [1] was -0.0001746 and the Sedoheptoluse bisphosphate [1] was -0.2854. For the same molecule, the cyclic-AMP [1] was -0.3638, the glutathione disulfide [1] was -0.4248 and the lactate [1] was -0.1885. For the same molecule, the myo-inositol [1] was -0.6665, the nicotinate [1] was -0.4616 and the ornithine [1] was -0.3065. For the same molecule, the phosphoenolpyruvate [1] was -0.5464, the pyruvate [1] was -0.3441 and the ribose-phosphate [1] was -0.3706. For the same molecule, the sarcosine/alanine [1] was -0.5111, the sn-glycerol-3-phosphate [1] was -0.2801 and the succinate/methylmalonic acid [1] was -0.2666. It also gave a uridine [1] of -0.2088 and a xanthosine [1] of -0.3176.
In the case of `CNCCCNc1ccnc2cc(Cl)ccc12` [MMV020500], the EC50 (P. falciparum) is reported as 0.0822 µM, the “fold change (IC50reduced/IC50normal)” value (P. falciparum 3D7) is reported as 3.9 and the IC50 (P. falciparum 3D7; [2]) is reported as 0.04 µM. For the same molecule, the IC50 (P. falciparum 3D7; [3]) was 0.155 µM, the Acetyllysine [1] was -2.213 and the N-acetyl-L-ornithine [1] was -0.8185. The N-carbamoyl-L-aspartate [1] was 0.6081, the NADPH [1] was 0.8295 and the dAMP [1] was 1.814. It also gave a dCMP [1] of 0.8961, a dTDP [1] of 0.7101 and a dTMP [1] of 2.186. It also gave a dTTP [1] of -0.2992, a dihydroorotate [1] of 0.1598 and an orotate [1] of 0.0865. For the same molecule, the DLH [1] was -2.137, the DLS/SDL/SID [1] was -0.7574 and the PD [1] was -1.597. It also gave a PEE [1] of -0.2916, a PVNF [1] of -1.612 and a 3-phosphoglycerate [1] of 0.07452. The ADP-D-glucose [1] was -0.08737, the ATP [1] was -0.9785 and the CDP [1] was 0.5532. For the same molecule, the D-sedoheptulose-1/7-phosphate [1] was 1.176, the FAD [1] was -0.249 and the GMP [1] was 1.138. For the same molecule, the “NAD+” value [1] was 0.8214, the “NADP+” value [1] was -0.06525 and the “Octoluse Bisphosphate” value [1] was -0.4524. The Pyroglutamic acid [1] was 0.1099, the UDP-D-glucose [1] was -0.02951 and the UDP-D-glucuronate [1] was -0.3318. For the same molecule, the UDP-N-acetyl-glucosamine [1] was 0.05445, the UDP [1] was 0.8779 and the UMP [1] was 0.5345. For the same molecule, the UTP [1] was -0.9493, the a-ketoglutarate [1] was 0.1415 and the citrate/isocitrate [1] was -0.9893. It also gave a cytidine [1] of -0.1492, a dATP [1] of -0.4735 and a dGMP/AMP [1] of 1.367. It also gave a fumarate [1] of -0.1707, a glucose-1/6-phosphate [1] of -0.009969 and a glycerate [1] of -0.6605. For the same molecule, the guanine [1] was 0.2615, the guanosine [1] was -0.1451 and the hypoxanthine [1] was -0.2256. It also gave an indole [1] of -0.03127, an inosine [1] of 0.04049 and a 2_3-Diphosphoglyceric acid [1] of -0.286. The 4-phosphopantothenate [1] was 0.7597, the 6-phospho-D-gluconate [1] was 0.1729 and the FMN [1] was 0.009843. It also gave an IMP [1] of 0.8224, a Pyrophosphate [1] of -0.4794 and a Sedoheptoluse bisphosphate [1] of -0.0186. It also gave a cyclic-AMP [1] of 0.9961, a glutathione disulfide [1] of -0.1428 and a lactate [1] of -0.3926. The myo-inositol [1] was -0.6279, the nicotinate [1] was 0.7754 and the ornithine [1] was -0.4966. For the same molecule, the phosphoenolpyruvate [1] was 0.07414, the pyruvate [1] was -0.1857 and the ribose-phosphate [1] was -0.6716. It also gave a sarcosine/alanine [1] of -0.5483, a sn-glycerol-3-phosphate [1] of -0.4228 and a succinate/methylmalonic acid [1] of 0.4498. It also gave a uridine [1] of -0.2827 and a xanthosine [1] of -0.8962.
